# Test results reported in patent publication US8557858B2, “(E)-N-(2-amino-phenyl)-3-{1-[4-(l-methyl-1H-pyrazol-4-yl)-benzenesulfonyl]-1H-pyrrol-3-yl}-acrylamide salts” (4SC AG, priority 2008, dated 2013).
# Key:
# Assay type in all cases: physicochemical
# Conditions in all cases: compared to the known hydrochloride salt
# [1] = Dissolution behavior / dissolution velocity of the salts
# Stability of the salts = experiment: Stability of the salts
# Solubility of the salt = experiment: Solubility of the salt
structure (smiles),measurement,setting,value
"Cc1ccc(S(=O)(=O)O)cc1.Cn1cc(-c2ccc(S(=O)(=O)n3ccc(/C=C/C(=O)Nc4ccccc4N)c3)cc2)cn1 [toluenesulfonate salt, (E)-N-(2-Amino-phenyl)-3-{1-[4-(1-methyl-1H-pyrazol-4-yl)-benzenesulfonyl]-H-pyrrol-3-yl}-acrylamide toluene-4-sulfonate]",dissolution velocity,[1],particularly high
same,stability,Stability of the salts,enhanced
same,solubility,Solubility of the salt,high
